Data published in patent US12350259B2, “Methods of treating migraine” (Allergan Pharmaceuticals International Limited, priority 2021, dated 2025).
Like-named read-outs stand apart in the source and are kept apart here.

Legend:
[1] = biological target: OCT1 (Homo sapiens, UniProt O15245); assay: Transporter inhibition; assay type: in vitro ADME
[2] = Food effect study: safety and tolerability; assay type: in vivo, human; conditions: fed and fasted
Experimental: Plasma samples were collected pre-dose and at predetermined time intervals up to 48 hours after dosing. Atogepant plasma concentrations were determined using a validated LC-MS/MS assay and the pharmacokinetic (PK) parameters were calculated using WinNonlin. A linear mixed-effects model with sequence, study intervention, and period as fixed effects, and participant nested within sequence as a random effect was used to compare the natural logarithm transformed values of atogepant PK parameters AUC0-t, AUC0-inf, and Cmax. Safety was monitored via ECGs, vital signs, clinical labs, and adverse events.

[3] = tested on: patients with episodic migraine; assay: Study 1 (NCT03777059): preventive treatment of episodic migraine, efficacy; assay type: in vivo, human
Experimental: The studies enrolled patients with at least a 1-year history of migraine with or without aura, according to the International Classification of Headache Disorders (ICHD-3) diagnostic criteria. In Study 1 (NCT03777059), 910 patients were randomized 1:1:1:1 to receive atogepant 10 mg (N=222), atogepant 30 mg (N=230), atogepant 60 mg (N=235), or placebo (N=223), once daily for 12 weeks. In Study 2 (NCT02848326), 652 patients were randomized 1:2:2:2 to receive atogepant 10 mg (N=94), atogepant 30 mg (N=185), atogepant 60 mg (N=187), or placebo (N=186), once daily for 12 weeks. In both studies, patients were allowed to use acute headache treatments (i.e., triptans, ergotamine derivatives, NSAIDs, acetaminophen, and opioids) as needed. The use of a concomitant medication that acts on the CGRP pathway was not permitted for either acute or preventive treatment of migraine. The studies excluded patients with myocardial infarction, stroke, or transient ischemic attacks within six months prior to screening. The primary efficacy endpoint was the change from baseline in mean monthly migraine days (MMD) across the 12-week treatment period. Secondary endpoints included the change from baseline in mean monthly headache days, the change from baseline in mean monthly acute medication use days, the proportion of patients achieving at least a 50% reduction from baseline in mean MMD (3-month average), the change from baseline in mean monthly Activity Impairment in Migraine-Diary (AIM-D) Performance of Daily Activities (PDA) domain scores, the change from baseline in mean monthly AIM-D Physical Impairment (PI) domain scores, across the 12 week treatment period, and the change from baseline at Week 12 for Migraine Specific Quality of Life Questionnaire version 2.1 (MSQ v2.1) Role Function-Restrictive (RFR) domain scores. The AIM-D evaluates difficulty with performance of daily activities (PDA domain) and physical impairment (PI domain) due to migraine, with scores ranging from 0 to 100. Higher scores indicate greater impact of migraine, and reductions from baseline indicate improvement. The MSQ v2.1 Role Function-Restrictive (RFR) domain score assesses how often migraine impacts function related to daily social and work-related activities over the past 4 weeks, with scores ranging from 0 to 100. Higher scores indicate lesser impact of migraine on daily activities, and increases from baseline indicate improvement.

[4] = biological target: BCRP (Homo sapiens, UniProt Q9UNQ0); assay: Transporter substrate; assay type: in vitro ADME
Chain of BCRP (Q9UNQ0 whole entry): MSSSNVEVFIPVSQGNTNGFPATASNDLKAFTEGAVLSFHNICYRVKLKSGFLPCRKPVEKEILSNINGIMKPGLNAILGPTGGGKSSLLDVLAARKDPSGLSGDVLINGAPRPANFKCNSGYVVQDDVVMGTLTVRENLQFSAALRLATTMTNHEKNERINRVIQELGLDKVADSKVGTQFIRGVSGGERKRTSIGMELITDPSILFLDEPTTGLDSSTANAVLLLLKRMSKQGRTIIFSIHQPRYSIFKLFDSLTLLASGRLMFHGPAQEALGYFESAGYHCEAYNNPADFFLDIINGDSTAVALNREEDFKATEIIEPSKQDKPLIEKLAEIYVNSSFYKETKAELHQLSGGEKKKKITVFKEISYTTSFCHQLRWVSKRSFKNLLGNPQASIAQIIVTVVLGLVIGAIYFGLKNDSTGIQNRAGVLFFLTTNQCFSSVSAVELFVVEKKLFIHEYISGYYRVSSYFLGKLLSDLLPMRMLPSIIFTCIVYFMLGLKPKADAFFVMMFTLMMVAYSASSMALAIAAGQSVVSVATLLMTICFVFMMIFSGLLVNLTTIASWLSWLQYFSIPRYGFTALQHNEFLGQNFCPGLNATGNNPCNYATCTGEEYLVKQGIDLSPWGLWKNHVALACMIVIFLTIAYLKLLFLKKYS

[5] = Clinical pharmacokinetics of atogepant after oral administration (summary); assay type: in vivo, human
[6] = All participants (N = 32), Treatments A, B1, B2
[7] = Treatment A: atogepant 60 mg alone (N = 32)
[8] = Treatment B1: atogepant 60 mg + rifampin 600 mg Day 7, rifampin Days 8-11 (N = 31)
[9] = Treatment B2: atogepant 60 mg + rifampin 600 mg Day 12, rifampin Day 13 (N = 31)
[10] = after Treatment B1 (atogepant + rifampin)
[11] = during the study, all treatments
[12] = Study 1, atogepant 10 mg once daily
[13] = Study 1, atogepant 30 mg once daily
[14] = Study 1, atogepant 60 mg once daily
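For Deaths in this document: safety population of participants given at least one dose, adverse events recorded through clinical assessment across the whole study.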
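For TEAE leading to treatment discontinuation in this document: safety population of participants given at least one dose, adverse events recorded through clinical assessment across the whole study.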
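For Treatment-Emergent Serious Adverse Events (TESAE) in this document: safety population of participants given at least one dose, adverse events recorded through clinical assessment across the whole study.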
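For Treatment-emergent adverse events (TEAE) in this document: safety population of participants given at least one dose, adverse events recorded through clinical assessment across the whole study.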

Chain of OCT1 (O15245 whole entry): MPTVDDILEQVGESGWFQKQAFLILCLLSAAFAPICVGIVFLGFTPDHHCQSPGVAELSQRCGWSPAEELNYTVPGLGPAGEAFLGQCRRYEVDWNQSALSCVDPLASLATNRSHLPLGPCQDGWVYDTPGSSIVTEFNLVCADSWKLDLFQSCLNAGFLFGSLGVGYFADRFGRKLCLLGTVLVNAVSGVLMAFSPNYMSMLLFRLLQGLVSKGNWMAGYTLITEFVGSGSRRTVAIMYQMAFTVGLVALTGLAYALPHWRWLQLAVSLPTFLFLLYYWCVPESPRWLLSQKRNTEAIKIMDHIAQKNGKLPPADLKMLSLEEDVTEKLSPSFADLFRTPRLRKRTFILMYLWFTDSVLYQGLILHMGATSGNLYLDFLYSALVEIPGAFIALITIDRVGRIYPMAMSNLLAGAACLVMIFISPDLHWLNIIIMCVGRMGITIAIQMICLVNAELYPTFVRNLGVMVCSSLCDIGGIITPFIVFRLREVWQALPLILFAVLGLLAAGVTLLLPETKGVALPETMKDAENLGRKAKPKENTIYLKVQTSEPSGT

C[C@@H]1[C@H](c2c(F)ccc(F)c2F)C[C@H](NC(=O)c2cnc3c(c2)C[C@@]2(C3)C(=O)Nc3ncccc32)C(=O)N1CC(F)(F)F [atogepant, (3′S)-N-[(3S,5S,6R)-6-methyl-2-oxo-1-(2,2,2-trifluoroethyl)-5-(2,3,6-trifluorophenyl)piperidin-3-yl]-2′-oxo-1′,2′,5,7-tetrahydrospiro[cyclopenta[b]pyridine-6,3′-pyrrolo[2,3-b]pyridine]-3-carboxamide]
Deaths [6]: 0 n (%)
TEAE leading to treatment discontinuation [6]: 0 n (%)
Treatment-Emergent Serious Adverse Events (TESAE) [6]: 0 n (%)
Treatment-emergent adverse events (TEAE) [6]: 11 (34.4) n (%)
Deaths [7]: 0 n (%)
TEAE leading to treatment discontinuation [7]: 0 n (%)
Treatment-Emergent Serious Adverse Events (TESAE) [7]: 0 n (%)
Treatment-emergent adverse events (TEAE) [7]: 0 n (%)
Deaths [8]: 0 n (%)
TEAE leading to treatment discontinuation [8]: 0 n (%)
Treatment-Emergent Serious Adverse Events (TESAE) [8]: 0 n (%)
Treatment-emergent adverse events (TEAE) [8]: 8 (25.8) n (%)
Deaths [9]: 0 n (%)
TEAE leading to treatment discontinuation [9]: 0 n (%)
Treatment-Emergent Serious Adverse Events (TESAE) [9]: 0 n (%)
Treatment-emergent adverse events (TEAE) [9]: 5 (16.1) n (%)
participants with at least one treatment-related TEAE [10]: 12.9%
participants with headache (most common TEAE) [10]: 6.5%
participants with at least one treatment-related TEAE (after Treatment B2 (atogepant + rifampin)): 6.5%
changes in clinical laboratory test results, vital signs, ECG findings (atogepant alone or with rifampin): no notable changes from baseline
tolerability (atogepant and rifampin, healthy participants): well tolerated
participants with at least one treatment-related TEAE [11]: 15.6%
participants with mild TEAEs [11]: 31.3%
participants with moderate TEAEs (during the study, after Treatment B1): 3.1%
participants with treatment-related nausea (during the study, one after B1, one after B2): 6.3%
inhibition of OCT1 [1]: weak inhibitor
participants with TEAEs considered related to study intervention ([2]; overall): 15%
participants with arthralgia ([2]; overall): 10.0%
participants with back pain ([2]; overall): 10.0%
participants with treatment emergent AEs (TEAEs) ([2]; overall): 35.0%
safety and tolerability ([2]; single doses of 60-mg IR formulation): safe and well-tolerated
AIM-D PDA Domain across 12 weeks, difference from placebo [3, 12]: −1.2
AIM-D PDA Domain across 12 weeks, mean change from baseline [3, 12]: −7.3
AIM-D PI Domain across 12 weeks, difference from placebo [3, 12]: −1.1
AIM-D PI Domain across 12 weeks, mean change from baseline [3, 12]: −5.1
MSQ v2.1 RFR Domain at week 12, difference from placebo [3, 12]: 9.9
MSQ v2.1 RFR Domain at week 12, mean change from baseline [3, 12]: 30.4
Monthly Acute Medication Use Days across 12 weeks, difference from placebo [3, 12]: −1.3
Monthly Acute Medication Use Days across 12 weeks, mean change from baseline [3, 12]: −3.7
Monthly Headache Days across 12 weeks, difference from placebo [3, 12]: −1.4
Monthly Headache Days across 12 weeks, mean change from baseline [3, 12]: −3.9
Monthly Migraine Days (MMD) across 12 weeks, difference from placebo [3, 12]: −1.2
Monthly Migraine Days (MMD) across 12 weeks, mean change from baseline [3, 12]: −3.7
≥50% MMD Responders across 12 weeks, % Responders [3, 12]: 56%
≥50% MMD Responders across 12 weeks, difference from placebo [3, 12]: 27%
AIM-D PDA Domain across 12 weeks, difference from placebo [3, 13]: −2.5
AIM-D PDA Domain across 12 weeks, mean change from baseline [3, 13]: −8.6
AIM-D PI Domain across 12 weeks, difference from placebo [3, 13]: −2.0
AIM-D PI Domain across 12 weeks, mean change from baseline [3, 13]: −6.0
MSQ v2.1 RFR Domain at week 12, difference from placebo [3, 13]: 10.1
MSQ v2.1 RFR Domain at week 12, mean change from baseline [3, 13]: 30.5
Monthly Acute Medication Use Days across 12 weeks, difference from placebo [3, 13]: −1.3
Monthly Acute Medication Use Days across 12 weeks, mean change from baseline [3, 13]: −3.7
Monthly Headache Days across 12 weeks, difference from placebo [3, 13]: −1.5
Monthly Headache Days across 12 weeks, mean change from baseline [3, 13]: −4.0
Monthly Migraine Days (MMD) across 12 weeks, difference from placebo [3, 13]: −1.4
Monthly Migraine Days (MMD) across 12 weeks, mean change from baseline [3, 13]: −3.9
≥50% MMD Responders across 12 weeks, % Responders [3, 13]: 59%
≥50% MMD Responders across 12 weeks, difference from placebo [3, 13]: 30%
AIM-D PDA Domain across 12 weeks, difference from placebo [3, 14]: −3.3
AIM-D PDA Domain across 12 weeks, mean change from baseline [3, 14]: −9.4
AIM-D PI Domain across 12 weeks, difference from placebo [3, 14]: −2.5
AIM-D PI Domain across 12 weeks, mean change from baseline [3, 14]: −6.5
MSQ v2.1 RFR Domain at week 12, difference from placebo [3, 14]: 10.8
MSQ v2.1 RFR Domain at week 12, mean change from baseline [3, 14]: 31.3
Monthly Acute Medication Use Days across 12 weeks, difference from placebo [3, 14]: −1.5
Monthly Acute Medication Use Days across 12 weeks, mean change from baseline [3, 14]: −3.9
Monthly Headache Days across 12 weeks, difference from placebo [3, 14]: −1.7
Monthly Headache Days across 12 weeks, mean change from baseline [3, 14]: −4.2
Monthly Migraine Days (MMD) across 12 weeks, difference from placebo [3, 14]: −1.7
Monthly Migraine Days (MMD) across 12 weeks, mean change from baseline [3, 14]: −4.2
≥50% MMD Responders across 12 weeks, % Responders [3, 14]: 61%
≥50% MMD Responders across 12 weeks, difference from placebo [3, 14]: 32%
substrate of BCRP [4]: substrate
mean apparent oral clearance (CL/F) ([5]; human, in vivo, po): approximately 19 L/hr
half-life ([5]; human, plasma, oral, read-out: elimination half-life (converted)): ~11 h
Vd/F ([5]; human, plasma, after oral administration, read-out: mean apparent volume distribution (Vz/F)): ~282 L
accumulation ([5]; once daily dosing): no accumulation
dose proportionality ([5]; once daily dosing): dose-proportional pharmacokinetics up to 170 mg
